Reference: patent publication US5674490A, “Antibiotic GE1655 complex and its factors A, B, and C” (Gruppa Lepetit S.p.A., priority 1995, dated 1997)

Tested on: Candida albicans L145
Experiment: Candida vaginitis in ovariectomized rats
Assay type: in vivo, ovariectomized female CD rats
Conditions: for Mean log10 cfu ± SD/sample: i.va. twice daily, after 3 days of treatment, GE1655 complex 10, miconazole 4 mg/rat per treat.
Description: The in vivo protective activity of the antibiotic GE1655 complex against Candida albicans in ovariectomized female CD rats (weighing 150-170 g, obtained from Charles River 7 days after surgery) was determined. Candida albicans L145 was grown overnight in Sabouraud dextrose broth (Difco) at 30° C. The culture was centrifuged at 6000 r.p.m. for 20 min at 4° C., the yeast was resuspended in nutrient broth N.2 (Oxoid) containing 15% (v/v) glycerol and stored at -80° C. After 7 days of acclimatization in a temperature and humidity controlled room, the animals received 4 mg of estradiol benzoate (Sigma) subcutaneously. Four days later they were infected by intravaginal (i.va.) instillation with 0.025 ml of thawed Candida albicans suspension (about 5×10^6 cfu/rat).
GE1655 complex and miconazole (Sigma) were dissolved in dimethylsulfoxide (DMSO) and then diluted 1:10 with PEG 400; this risulted in homogeneous suspensions. Animals received 0.1 ml of one of these suspensions i.va. twice daily for three days starting 24 h after the infection. Control animals were treated with the vehicle (10% DMSO in PEG 400).
The presence of Candida was determined by inserting a disposable 0.01 ml calibrated loop into the vagina. The sample was resuspended in 0.2 ml of sterile peptonized saline and cultivated on Sabouraud dextrose agar containing 100 mg/l of rifampicin to inhibit growth of bacterial contaminants.

Clc1ccc(COC(Cn2ccnc2)c2ccc(Cl)cc2Cl)c(Cl)c1 (stereo not drawn) [Miconazole, miconazole]
vaginal load compared with the control group (2 experiments, 10 mg of GE1655 complex or 4 mg of miconazole): significantly lower (p<0.01) | Mean log10 cfu ± SD/sample (exp. 1): 1.20 ± 1.01 log10 cfu/sample | Mean log10 cfu ± SD/sample (exp. 2): 1.24 ± 0.86 log10 cfu/sample
